This note sets out measurements from US8952024B2, “Herbicidal pyrimidone derivatives” (E I du Pont de Nemours and Company, priority 2009, dated 2015).

One assay relates to soybean (Glycine max). Kind of assay: Test B pre-/postemergence plant response. Type of assay: in vivo. As to conditions: Postemergence, 31 g ai/ha; 0 to 100 scale (0 no effect, 100 complete control). Put shortly:
(§1)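 Plants treated either at seeding (loam/sand soil) or postemergence at 2 to 18 cm height, using a surfactant-containing non-phytotoxic solvent formulation. Evaluation was visual after 13 to 15 days, 0 to 100 scale relative to controls.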
Regarding `CCCn1c(-c2ccsc2)ncc(C(=O)C2=C(O)C3CCC(C3)C2=O)c1=O` (centres unmarked) [Compound 227], the “Plant response rating, Soybean” value is 55.

The same assay, now with this note: Postemergence, 62 g ai/ha; scale 0 to 100 (0 no effect, 100 complete control).
For the compound `CCCn1c(-c2ccsc2)ncc(C(=O)C2=C(O)C3CCC(C3)C2=O)c1=O` (centres unmarked) [Compound 227], the “Plant response rating, Soybean” value turned out to be 65.

The same assay, now with this note: Postemergence, 250 g ai/ha; scale 0 to 100 (0 no effect, 100 complete control); 13 to 15 days.
Regarding `CCCn1c(-c2ccsc2)ncc(C(=O)C2=C(O)C3CCC(C3)C2=O)c1=O` (centres unmarked) [Compound 227], the “Plant response rating, Soybean” value is listed as 98.

For another assay, the system named is wild oat (Avena fatua). Kind of assay: Test B pre-/postemergence plant response. Type of assay: in vivo. As to conditions: Postemergence, 31 g ai/ha; 0 to 100 scale (0 no effect, 100 complete control). Put shortly: as §1
Take `CCCn1c(-c2ccsc2)ncc(C(=O)C2=C(O)C3CCC(C3)C2=O)c1=O` (centres unmarked) [Compound 227]: the “Plant response rating, Oat, Wild” value is given as 0.

Still in this assay, the particulars now being: Postemergence, 62 g ai/ha; scale 0 to 100 (0 no effect, 100 complete control).
In the case of `CCCn1c(-c2ccsc2)ncc(C(=O)C2=C(O)C3CCC(C3)C2=O)c1=O` (centres unmarked) [Compound 227], the “Plant response rating, Oat, Wild” value stood at 0.

The same assay, now with this note: Postemergence, 250 g ai/ha; scale 0 to 100 (0 no effect, 100 complete control); 13 to 15 days.
With `CCCn1c(-c2ccsc2)ncc(C(=O)C2=C(O)C3CCC(C3)C2=O)c1=O` (centres unmarked) [Compound 227], the “Plant response rating, Oat, Wild” value is reported as 30.

For the next assay, the system named is wheat (Triticum aestivum). Nature of the assay: Test B pre-/postemergence plant response. As to conditions: Postemergence, 31 g ai/ha; 0 to 100 scale (0 no effect, 100 complete control). It counts as in vivo. A digest of the protocol:
as §1
Consider `CCCn1c(-c2ccsc2)ncc(C(=O)C2=C(O)C3CCC(C3)C2=O)c1=O` (centres unmarked) [Compound 227], for which the “Plant response rating, Wheat” value is given as 0.

The assay is the same for the next values; noted with them: Postemergence, 62 g ai/ha; scale 0 to 100 (0 no effect, 100 complete control).
With `CCCn1c(-c2ccsc2)ncc(C(=O)C2=C(O)C3CCC(C3)C2=O)c1=O` (centres unmarked) [Compound 227], the “Plant response rating, Wheat” value is reported as 0.

The same assay, now with this note: Postemergence, 250 g ai/ha; scale 0 to 100 (0 no effect, 100 complete control); 13 to 15 days.
In the case of `CCCn1c(-c2ccsc2)ncc(C(=O)C2=C(O)C3CCC(C3)C2=O)c1=O` (centres unmarked) [Compound 227], the “Plant response rating, Wheat” value is reported as 20.

Another assay concerns ragweed (common ragweed, Ambrosia elatior). Kind of assay: Test B pre-/postemergence plant response. The conditions noted are these: Postemergence, 31 g ai/ha; 0 to 100 scale (0 no effect, 100 complete control). It counts as in vivo. Put shortly:
as §1
Take `CCCn1c(-c2ccsc2)ncc(C(=O)C2=C(O)C3CCC(C3)C2=O)c1=O` (centres unmarked) [Compound 227]: the “Plant response rating, Ragweed” value is 60.

Still in this assay, the particulars now being: Postemergence, 62 g ai/ha; scale 0 to 100 (0 no effect, 100 complete control).
In the case of `CCCn1c(-c2ccsc2)ncc(C(=O)C2=C(O)C3CCC(C3)C2=O)c1=O` (centres unmarked) [Compound 227], the “Plant response rating, Ragweed” value worked out at 70.

The same assay, now with this note: Postemergence, 250 g ai/ha; scale 0 to 100 (0 no effect, 100 complete control); 13 to 15 days.
For the compound `CCCn1c(-c2ccsc2)ncc(C(=O)C2=C(O)C3CCC(C3)C2=O)c1=O` (centres unmarked) [Compound 227], the “Plant response rating, Ragweed” value came out at 85.

The next assay relates to kochia (Kochia scoparia). Kind of assay: Test B pre-/postemergence plant response. It counts as in vivo. As to conditions: Postemergence, 31 g ai/ha; 0 to 100 scale (0 no effect, 100 complete control). Put shortly: as §1
For the compound `CCCn1c(-c2ccsc2)ncc(C(=O)C2=C(O)C3CCC(C3)C2=O)c1=O` (centres unmarked) [Compound 227], the “Plant response rating, Kochia” value is on record as 70.

Staying with this assay, now noted: Postemergence, 62 g ai/ha; scale 0 to 100 (0 no effect, 100 complete control).
As to `CCCn1c(-c2ccsc2)ncc(C(=O)C2=C(O)C3CCC(C3)C2=O)c1=O` (centres unmarked) [Compound 227], the “Plant response rating, Kochia” value came to 75.

Staying with this assay, now noted: Postemergence, 125 g ai/ha; scale 0 to 100 (0 no effect, 100 complete control).
Turning to `CCCn1c(-c2ccsc2)ncc(C(=O)C2=C(O)C3CCC(C3)C2=O)c1=O` (centres unmarked) [Compound 227], the “Plant response rating, Kochia” value amounted to 85.

Staying with this assay, now noted: Postemergence, 250 g ai/ha; scale 0 to 100 (0 no effect, 100 complete control); 13 to 15 days.
As to `CCCn1c(-c2ccsc2)ncc(C(=O)C2=C(O)C3CCC(C3)C2=O)c1=O` (centres unmarked) [Compound 227], the “Plant response rating, Kochia” value was 100.

The next assay concerns goosegrass (Eleusine indica). Kind of assay: Test B pre-/postemergence plant response. The conditions noted are these: Postemergence, 31 g ai/ha; 0 to 100 scale (0 no effect, 100 complete control). It counts as in vivo. Put shortly: as §1
Consider `CCCn1c(-c2ccsc2)ncc(C(=O)C2=C(O)C3CCC(C3)C2=O)c1=O` (centres unmarked) [Compound 227], for which the “Plant response rating, Goosegrass” value is reported as 75.

The same assay, now with this note: Postemergence, 62 g ai/ha; scale 0 to 100 (0 no effect, 100 complete control).
Regarding `CCCn1c(-c2ccsc2)ncc(C(=O)C2=C(O)C3CCC(C3)C2=O)c1=O` (centres unmarked) [Compound 227], the “Plant response rating, Goosegrass” value is recorded as 75.

Staying with this assay, now noted: Postemergence, 125 g ai/ha; scale 0 to 100 (0 no effect, 100 complete control).
Take `CCCn1c(-c2ccsc2)ncc(C(=O)C2=C(O)C3CCC(C3)C2=O)c1=O` (centres unmarked) [Compound 227]: the “Plant response rating, Goosegrass” value is 75.

Still in this assay, the particulars now being: Postemergence, 250 g ai/ha; scale 0 to 100 (0 no effect, 100 complete control); 13 to 15 days.
Consider `CCCn1c(-c2ccsc2)ncc(C(=O)C2=C(O)C3CCC(C3)C2=O)c1=O` (centres unmarked) [Compound 227], for which the “Plant response rating, Goosegrass” value is listed as 80.

The test system of a further assay is pigweed (Amaranthus retroflexus). Kind of assay: Test B pre-/postemergence plant response. It counts as in vivo. The conditions noted are these: Postemergence, 31 g ai/ha; 0 to 100 scale (0 no effect, 100 complete control). Put shortly: as §1
Consider `CCCn1c(-c2ccsc2)ncc(C(=O)C2=C(O)C3CCC(C3)C2=O)c1=O` (centres unmarked) [Compound 227], for which the “Plant response rating, Pigweed” value was 80.

The same assay, now with this note: Postemergence, 62 g ai/ha; scale 0 to 100 (0 no effect, 100 complete control).
Consider `CCCn1c(-c2ccsc2)ncc(C(=O)C2=C(O)C3CCC(C3)C2=O)c1=O` (centres unmarked) [Compound 227], for which the “Plant response rating, Pigweed” value stood at 90.

The assay is the same for the next values; noted with them: Postemergence, 250 g ai/ha; scale 0 to 100 (0 no effect, 100 complete control); 13 to 15 days.
Regarding `CCCn1c(-c2ccsc2)ncc(C(=O)C2=C(O)C3CCC(C3)C2=O)c1=O` (centres unmarked) [Compound 227], the “Plant response rating, Pigweed” value is recorded as 100.
